Measurements published in patent US20060142247A1, “Tricyclic heterocycles” (priority 2004, published 2006).

Biological target: T1, Aurora A (Homo sapiens, UniProt O14965)
T1 construct: C-terminally Histidine4 (His4)-tagged Aurora A full-length protein; His4 (C)
T1 sequence (O14965 1-403): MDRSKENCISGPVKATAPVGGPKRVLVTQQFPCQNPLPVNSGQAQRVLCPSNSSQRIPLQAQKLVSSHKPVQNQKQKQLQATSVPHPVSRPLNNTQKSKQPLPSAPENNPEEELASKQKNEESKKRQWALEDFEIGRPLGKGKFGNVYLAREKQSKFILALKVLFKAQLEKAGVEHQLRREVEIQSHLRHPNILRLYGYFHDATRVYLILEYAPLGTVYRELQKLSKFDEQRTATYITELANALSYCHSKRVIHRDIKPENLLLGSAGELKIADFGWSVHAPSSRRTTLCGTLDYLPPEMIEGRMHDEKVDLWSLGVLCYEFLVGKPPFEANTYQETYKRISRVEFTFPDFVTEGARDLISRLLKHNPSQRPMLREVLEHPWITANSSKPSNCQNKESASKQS
Assay: IC50 determination for inhibitors of Aurora A (96 MTP-ELISA)
Assay type: biochemical
Settings: His4-tagged full-length Aurora A 250 ng/ml, PKB-GSK2 200 nM, ATP 4 μM, 90 min room temperature, read-out: IC50 Aurora A kinase inhibition
Protocol: Aurora A is a serine threonine kinase involved in spindle assembly and chromosome segregation. The assay is a typically ELISA-type assay where biotinylated substrate (PKB-GSK2) is phosphorylated. Phosphorylation is detected by peroxidase (POD) labelled polyclonal antibody (PAK<M-Ig>S-IgG-POD) and phosphopeptide monoclonal antibody (Mab) (MAK<P-GSK>M-27E5-IgG). The assay is validated for IC50-determination.
Assay plates: 96-well polystyrene plates, streptavidin-coated,
Samples: 10 mM in dimethylsulfoxide (DMSO)
Aurora A-His-4: C-terminally Histidine4 (His4)-tagged Aurora A full-length protein, stock solution 0.7 mg/ml, final conc.: 250 ng/ml
PKB-GSK2: biotinylated peptide derived from human GSK3-alpha sequence (Biotin-SGRARTSSFAEPGG-CONH2), stock solution 600 μM, final conc.: 200 nM
PAK<M-Ig>S-IgG-POD: Anti-mouse IgG, horse radish peroxidase(HRP)-linked Antibody, diluted in 3% BSA/PBS-T (1:10000), (Cell Signaling, Cat. No.: 7076)
MAK<P-GSK>M-27E5-IgG: Phospho-GSK-3-alpha (Ser 21) (27E5) Monoclonal Antibody, stock solution 1.85 mg/ml, diluted in 3% BSA/PBS-T (1:6000), final conc.: 0.31 μg/ml, (Cell Signaling, Cat. No.: 9337B)
ATP: Adenosine-5′-triphosphate 1 mM, diluted in kinase buffer, (Roche Diagnostics GmbH, Cat. No.: 127531-001,), final conc.: 4 μM
TRIS: 2-Amino-2-hydroxymethyl-1,3-propoanediol (“tris-(hydroxymethyl)-aminomethane”) (MERCK, Cat. No.: 108382.2500)
BSA: Bovine Serum Albumin Fraction V, fatty acid free (Roche Diagnostics GmbH, Cat. No. 9100221)
EDTA Titriplex III (di-Sodium-EDTA di-Hydrate), 120 mM, (MERCK, Cat. No.: 1.08418.1000)
ABTS buffer: ABTS (2,2′-azino-bis(3-ethylbenzthiazoline-6-sulfonic acid)) 16.7 mg/ml (Roche Diagnostics GmbH, Cat. No.: 1204530) • ABTS tablets: dissolve one ABTS tablet in 50 ml of working solution (ABTS buffer) (Roche Diagnostics GmbH, Cat. No.: 1112422 ) • Tween 20: Polysorbat 20 (Roche Diagnostics GmbH, Cat. No.: 10006394-001) • DTT: 1,4-Dithiothreitol (Roche Diagnostics GmbH, Cat. No.: 197777) • MgCl2×6H2O MERCK, Cat. No.: 105833.1000 • Kinase buffer: 50 mM TRIS, 10 mM MgCl2, 1 mM DTT, 0.1% Tween 20, pH 7.8 PBS-T (=Wash buffer) (PBS-T)10 g/l PBS(Phosphate buffered saline) with 0.033% Tween 20 • 3% BSA/PBS-T: 3% BSA dissolved in PBS-T Method
This assay is performed in 96-well format for IC50 determination with 5 samples (each with 8 concentrations by twofold testing), 100 μl incubation volume and the following plate layout:
S samples, with ATP, 1% DMSO, final conc.: a=100 μM, b=20 μM, c=4 μM, d=0.8 μM, e=0.16 μM, f=0.032 μM, g=0.0064 μM, h=0.00128 μM Step/Action • (1) Sample preparation: add 24 μl per well samples (descending sequence) diluted in kinase buffer to assay plate (final conc. for DMSO 1%). • 2. Add directly 16 μl Aurora-A-his-4 diluted in kinase buffer to assay plate. • 3. Add directly 40 μl per well PKB-GSK2/ATP mixture to assay plate, (final conc.: Aurora A=250 ng/ml, GSK2=200 nM, ATP=4 μM). Negative control: without ATP. • 4. Incubate assay plate for exactly 90 min at room temperature. • 5. Stop reaction by adding 20 μl EDTA in all wells. • 6. Wash assay plate 3× with 200 μl washing buffer per well. • 7. Add 100 μl MAK<P-GSK>M27E5-IgG (1:10000) and PAK<M-Ig>S-IgG-POD (1:6000) dissolved in 3% BSA/PBS-T to assay plate per well. • 8. Incubate assay plate for 60 min at room temperature. • 9. Wash assay plate 3× with 200 μl washing buffer per well • 10. Add 100 μl ABTS solution to assay plate per well, incubate for approx. 4 min at RT on MTP shaker. • 11. Measure absorption at 405/492 nm. • 12. Calculate % inhibition as: (1−(Esample−ENC)/(EPC−ENC))×100 1)
13. Calculate IC50 using a non-linear curve fit (XLfit software (ID Business Solution Ltd., Guilford, Surrey, UK))

SMILES: CC(C)N1C(=O)C(C)(C)c2cc3nc(-c4n[nH]c5ccccc45)[nH]c3cc21 [Example 6, 2-(1H-indazol-3-yl)-5-isopropyl-7,7-dimethyl-5,7-dihydro-3H-imidazo[4,5-f]indol-6-one]
- IC50: 28 nM

SMILES: CC1(C)C(=O)N(CC(=O)N2CCOCC2)c2cc3[nH]c(-c4n[nH]c5ccccc45)nc3cc21 [Example 40, 2-(1H-Indazol-3-yl)-7,7-dimethyl-5-(2-morpholin-4-yl-2-oxo-ethyl)-5,7-dihydro-3H-imidazo[4,5-f]indol-6-one]
- IC50: 1 to 100 nM

SMILES: CC1(C)C(=O)N(CCO[Si](C)(C)C(C)(C)C)c2cc3[nH]c(-c4n[nH]c5ccccc45)nc3cc21 [Example 28, 5-[2-(tert-Butyl-dimethyl-silanyloxy)-ethyl]-2-(1H-indazol-3-yl)-7,7-dimethyl-5,7-dihydro-3H-imidazo[4,5-f]indol-6-one]
- IC50: 1 to 100 nM

SMILES: CC1(C)C(=O)N(CCCN2CCCCC2)c2cc3[nH]c(-c4n[nH]c5ccccc45)nc3cc21 [Example 19, 2-(1H-Indazol-3-yl)-7,7-dimethyl-5-(3-piperidin-1-yl-propyl)-5,7-dihydro-3H-imidazo[4,5-f]indol-6-one]
- IC50: 1 to 100 nM

SMILES: CCCN1C(=O)C(C)(C)c2cc3nc(-c4n[nH]c5ccccc45)[nH]c3cc21 [Example 5, 2-(1H-indazol-3-yl)-7,7-dimethyl-5-propyl-5,7-dihydro-3H-imidazo[4,5-f]indol-6-one]
- IC50: 1 to 100 nM

SMILES: C=CCCN1C(=O)C(C)(C)c2cc3nc(-c4n[nH]c5ccccc45)[nH]c3cc21 [Example 15, 5-But-3-enyl-2-(1H-indazol-3-yl)-7,7-dimethyl-5,7-dihydro-3H-imidazo[4,5-f]indol-6-one]
- IC50: 1 to 100 nM

SMILES: CN(C)CCCN1C(=O)C(C)(C)c2cc3nc(-c4n[nH]c5ccccc45)[nH]c3cc21 [Example 21, 5-(3-Dimethylamino-propyl)-2-(1H-indazol-3-yl)-7,7-dimethyl-5,7-dihydro-3H-imidazo[4,5-f]indol-6-one]
- IC50: 1 to 100 nM

SMILES: CC1(C)C(=O)N(CCCN2CCOCC2)c2cc3[nH]c(-c4n[nH]c5ccccc45)nc3cc21 [Example 7, 2-(1H-indazol-3-yl)-7,7-dimethyl-5-(3-morpholin-4-yl-propyl)-5,7-dihydro-3H-imidazo[4,5-f]indol-6-one]
- IC50: 14 nM

SMILES: CC1(C)C(=O)N(CC(O)CO)c2cc3[nH]c(-c4n[nH]c5ccccc45)nc3cc21 (stereo not shown) [Example 35, 5-(2,3-Dihydroxy-propyl)-2-(1H-indazol-3-yl)-7,7-dimethyl-5,7-dihydro-3H-imidazo [4,5-f]indol-6-one]
- IC50: 1 to 100 nM

SMILES: CC1(C)C(=O)N(Cc2ccc(S(C)(=O)=O)cc2)c2cc3[nH]c(-c4n[nH]c5ccccc45)nc3cc21 [Example 27, 2-(1H-Indazol-3-yl)-5-(4-methanesulfonyl-benzyl)-7,7-dimethyl-5,7-dihydro-3H-imidazol[4,5-f]indol-6-one]
- IC50: 1 to 100 nM

SMILES: CCC1C(=O)Nc2cc3nc(-c4[nH]nc5ccccc45)[nH]c3cc21 (stereo not shown) [Example 13, 7-Ethyl-2-(1H-indazol-3-yl)-5,7-dihydro-3H-imidazo[4,5-f]indol-6-one]
- IC50: 100 to 250 nM

SMILES: C=CCN1C(=O)C(C)(C)c2cc3nc(-c4n[nH]c5ccccc45)[nH]c3cc21 [Example 2, 5-Allyl-2-(1H-indazol-3-yl)-7,7-dimethyl-5,7-dihydro-3H-imidazo[4,5-f]indol-6-one]
- IC50: 1 to 100 nM

SMILES: CC1(C)C(=O)N(CC(=O)O)c2cc3[nH]c(-c4n[nH]c5ccccc45)nc3cc21 [Example 36, [2-(1H-Indazol-3-yl)-7,7-dimethyl-6-oxo-6,7-dihydro-3H-imidazo[4,5-f]indol-5-yl]-acetic acid]
- IC50: 1 to 100 nM

SMILES: CC1(C)C(=O)N(CCO)c2cc3[nH]c(-c4n[nH]c5ccccc45)nc3cc21 [Example 34, 5-(2-Hydroxy-ethyl)-2-(1H-indazol-3-yl)-7,7-dimethyl-5,7-dihydro-3H-imidazo[4,5-f]indol-6-one]
- IC50: 1 to 100 nM

SMILES: CC1(C)C(=O)Nc2cc3[nH]c(-c4n[nH]c5ccccc45)nc3cc21 [Example 8, 2-(1H-indazol-3-yl)-7,7-dimethyl-5,7-dihydro-3H-imidazo[4,5-f]indol-6-one]
- IC50: 1 to 100 nM

SMILES: CCOC(=O)CN1C(=O)C(C)(C)c2cc3nc(-c4n[nH]c5ccccc45)[nH]c3cc21 [Example 23, [2-(1H-Indazol-3-yl)-7,7-dimethyl-6-oxo-6,7-dihydro-3H-imidazo[4,5-f]indol-5-yl]-acetic acid ethyl ester]
- IC50: 1 to 100 nM

SMILES: CC1(C)C(=O)N(Cc2ccccc2)c2cc3[nH]c(-c4n[nH]c5ccccc45)nc3cc21 [Example 26, 5-Benzyl-2-(1H-indazol-3-yl)-7,7-dimethyl-5,7-dihydro-3H-imidazo[4,5-f]indol-6-one]
- IC50: 100 to 250 nM

SMILES: COCCOCCN1C(=O)C(C)(C)c2cc3nc(-c4n[nH]c5ccccc45)[nH]c3cc21 [Example 17, 2-(1H-Indazol-3-yl)-5-[2-(2-methoxy-ethoxy)-ethyl]-7,7-dimethyl-5,7-dihydro-3H-imidazo[4,5-f]indol-6-one]
- IC50: 1 to 100 nM

SMILES: CC1(C)C(=O)N(CC(=O)Nc2ccccc2)c2cc3[nH]c(-c4n[nH]c5ccccc45)nc3cc21 [Example 43, 2-[2-(1H-Indazol-3-yl)-7,7-dimethyl-6-oxo-6,7-dihydro-3H-imidazo[4,5-f]indol-5-yl]-N-phenyl-acetamide]
- IC50: 1 to 100 nM

SMILES: CC1(C)C(=O)N(CC(=O)NCc2ccccc2)c2cc3[nH]c(-c4n[nH]c5ccccc45)nc3cc21 [Example 39, N-Benzyl-2-[2-(1H-indazol-3-yl)-7,7-dimethyl-6-oxo-6,7-dihydro-3H-imidazo[4,5-f]indol-5-yl]-acetamide]
- IC50: 1 to 100 nM

SMILES: CC1(C)C(=O)N(CCN)c2cc3[nH]c(-c4n[nH]c5ccccc45)nc3cc21 [Example 52, 5-(2-Amino-ethyl)-2-(1H-indazol-3-yl)-7,7-dimethyl-5,7-dihydro-3H-imidazo[4,5-f]indol-6-one]
- IC50: 1 to 100 nM

SMILES: O=C1Nc2cc3nc(-c4n[nH]c5ccccc45)[nH]c3cc2C12CCCC2 [Example 9, 2-(1H-indazol-3-yl)-spiro[7,7-cyclopentan-5,7-dihydro-3H-imidazo[4,5-f]indol]-6-one]
- IC50: 100 to 250 nM
